Ends that are not written are not given here. * marks the point of attachment. Biotin = O=C1N[C@H]2[C@H](CS[C@H]2CCCCC(=O)*)N1
What was measured:
YjbM = assay: Fluorescence polarization assay, YjbM; type: binding, E. coli; settings: 100 nM DyLight 549-labeled LfcinB; protein 0.025-0.4 µM; data not shown
Text: FP assays, investigations of the binding between two molecules in a homogeneous aqueous environment, were used to validate the identified 153 proteins. […] If a fluorophore only binds to a small molecule, such as peptide, the rotation of the complex is fast and the light emits in a different plane of polarization. Therefore, the degree of polarization is low. However, once a fluorophore binds to a large molecule, the bound complex is stimulated with polarized light. The light emits in the same polarized plane, and the complex is maintained in the same plane of polarization, causing an increase in the degree of polarization [22]–[24]. The amount of molecules binding to a fluorophore influences the degree of polarization. In this study, LfcinB was labeled with DyLight™ 549 as a reference value. Once the protein bound to LfcinB, like a fluorophore binds to a large molecule, a high degree of polarization is expected.
Before the assays, LfcinB was labeled with DyLight™ 549 and tested proteins were quantified with a Pierce® bicinchoninic acid (BCA™) protein assay (Thermo). To label the LfcinB, DyLight™ 549-NHS ester and LfcinB (68∶1, mole/mole) were mixed in PBS at room temperature for 1 h, a D-Salt™ polyacrylamide desalting column (Thermo) was used to remove excess dye and the labeling efficiency of the eluted solution was calculated. […]

NrdB = assay: E. coli proteome chip assay, NrdB; type: binding, E. coli K-12; settings: NrdB not in the top 153 proteins; 10 nM biotinylated LfcinB
Method: To fabricate the proteome chips, E. coli K-12 proteins were expressed and purified in a high-throughput fashion. The procedure was modified from Chen et al.. Briefly, E. coli protein expression clones fused with a 6×-His tag, provided by Dr. Mori, were first incubated with glass beads (Biospec Products Inc.) in 2× LB medium containing 30 µg/ml chloramphenicol in 96 DeepWell™ plates (Nunc) at 37°C overnight. The overnight cultures were then diluted with 2× LB that contains 30 µg/ml chloramphenicol to the OD595 value of 0.1. When the cells grew to an OD595 value of 0.7–0.9, 500 µM of isopropyl β-D-thiogalactoside (IPTG) was added to induce protein expression at 37°C for ∼3.5 h. The cultures were then harvested by centrifugation at 3220 g for 5 min at 4°C, and the pellets were stored at −80°C before purification. […]
For image processing of chip assay results, Genepix Pro 6.0 was used to align the protein spot of each individual protein and then all aligned protein image signals were exported as a text file. The text file was analyzed by ProCAT [17], a signal normalization method. The relative ability of LfcinB to bind to each protein was estimated by the ratio of the fluorescence intensity of LfcinB to the fluorescence intensity of an anti-His antibody after the normalization. […]

E. coli MG1655 = assay: Pyruvate assay: E. coli growth (OD595); type: cell-based; settings: 32 µM LfcinB
Text: To confirm one of the mechanisms of LfcinB action in pyruvate metabolism, a minimal medium was chosen; because general LB medium contains many carbon sources, including sugars, alcohols and organic acids, this minimal medium allowed glucose to be the sole carbon source in the pyruvate assays. Minimal medium consisted of 6 g/l NaH2PO4, 3 g/l K2HPO4, 0.5 g/l NaCl, 0.12 g/l MgSO4, 1 g/l NH4Cl, 0.01 g/l CaCl2 and 5 g/l glucose. A 0.22 µm filter (Millex®GS, Millipore) was used to filter the minimal medium. E. coli MG1655 was first inoculated into the minimal medium and incubated at 37°C for 16 h with shaking as a preculture. The preculture was diluted 100-fold with the minimal medium in 96-well plate, and 32 µM of LfcinB were added. The mixture was incubated with shaking in a microplate reader at 37°C, and the absorbance was measured after 9 h. Finally, the mixture was harvested by centrifugation at 3452 g for 5 min at 4°C, and each supernatant was removed. The pellets were then stored at −80°C.

Substance: Lactoferricin B (Biotin-FKCRRWQWRMKKLGAPSITCVRRAF; ends and bridges not checked) [LfcinB]
- binding to YjbM (YjbM): confirmed to bind to LfcinB
- binding affinity in chip assays (NrdB): strong binding affinity with LfcinB
- Value of OD595 after 9 h incubation (E. coli MG1655; minimal medium with glucose, 37°C, 9 h, E. coli without LfcinB 0.325±0.011): 0.267±0.011
- Initial value of OD595 (E. coli MG1655; minimal medium with glucose, 37°C, E. coli without LfcinB 0.057±0.002): 0.058±0.001
- amount (OD595) of E. coli after 9 h with vs without LfcinB (E. coli MG1655; minimal medium, 9 h): lower than the level of E. coli without LfcinB

Source: PMC3229523, “Identification of Lactoferricin B Intracellular Targets Using an Escherichia coli Proteome Chip” (PLoS ONE, 2011)
